Source: US8148391B2 (Cephalon, Inc., priority 2006, dated 2012)
Where two headings read alike, the source gives them in different places. Values belong to the compound of their own block, whether it stands above or below them.

Assays:
[1] = target: T1, baculovirus-expressed ALK (Homo sapiens, UniProt Q9UM73); experiment: ALK Kinase Assay (ELISA-type, time-resolved fluorescence); format: biochemical
T1 construct: host or cells: baculovirus expression system
Summary of the method: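 Plates coated with phospholipase C-γ substrate (10 μg/mL in TBS); reaction started with 30 ng/ml ALK and run 15 min at 37° C. Phosphorylated substrate detected with Eu-N1-labeled PT66 antibody. IC50 from sigmoidal variable-slope fit of percent inhibition vs log concentration.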

[2] = target: T2, c-Met (cytoplasmic domain) (Homo sapiens, UniProt P08581); experiment: c-Met Kinase Assay (same methods as for ALK, with modifications); format: biochemical
T2 construct: 10 ng/mL c-Met (cytoplasmic domain, Invitrogen Corporation #PV3143); purchased Invitrogen Corporation PV3143
T2 sequence (P08581 956-1390 limits assumed): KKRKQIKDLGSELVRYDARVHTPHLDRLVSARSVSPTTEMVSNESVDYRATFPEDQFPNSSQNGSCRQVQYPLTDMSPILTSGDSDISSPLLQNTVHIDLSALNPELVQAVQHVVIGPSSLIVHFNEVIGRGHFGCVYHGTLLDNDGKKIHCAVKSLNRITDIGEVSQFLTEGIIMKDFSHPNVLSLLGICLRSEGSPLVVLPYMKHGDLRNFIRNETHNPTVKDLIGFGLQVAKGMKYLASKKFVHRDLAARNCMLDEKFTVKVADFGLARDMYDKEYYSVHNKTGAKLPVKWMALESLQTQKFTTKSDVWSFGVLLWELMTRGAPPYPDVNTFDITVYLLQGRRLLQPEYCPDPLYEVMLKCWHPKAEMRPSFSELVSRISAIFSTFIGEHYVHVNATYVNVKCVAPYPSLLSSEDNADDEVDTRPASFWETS
Summary of the method: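 Europium-labeled PT66 antibody (Eu-N1) detects substrate phosphorylation on wells coated with phospholipase C-γ at 10 μg/mL. The kinase, the cytoplasmic domain of c-Met at 10 ng/mL, starts the reaction, which proceeds 15 minutes at 37° C.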

[3] = ALK kinase inhibition, 1 μM ATP, read-out: ALK Activity
[4] = c-Met kinase inhibition, 1 μM ATP, read-out: cMet Activity
[5] = 1 μM ATP (Km level), 30 ng/ml ALK, 37° C., 15 minutes, read-out: ALK Activity (ALK kinase inhibition, IC50 class)
[6] = 1 μM ATP (Km level), 10 ng/mL c-Met, read-out: cMet Activity (c-Met kinase inhibition, IC50 class)
[7] = ALK kinase inhibition, 1 μM ATP (Km level), read-out: ALK Activity
[8] = c-Met kinase inhibition, 1 μM ATP (Km level), read-out: cMet Activity
[9] = 1 μM ATP (Km level), read-out: ALK Activity (ALK Kinase Inhibition, IC50)
[10] = 1 μM ATP (Km level), read-out: cMet Activity (c-Met Kinase Inhibition, IC50)

T1 sequence (Q9UM73 19-1620): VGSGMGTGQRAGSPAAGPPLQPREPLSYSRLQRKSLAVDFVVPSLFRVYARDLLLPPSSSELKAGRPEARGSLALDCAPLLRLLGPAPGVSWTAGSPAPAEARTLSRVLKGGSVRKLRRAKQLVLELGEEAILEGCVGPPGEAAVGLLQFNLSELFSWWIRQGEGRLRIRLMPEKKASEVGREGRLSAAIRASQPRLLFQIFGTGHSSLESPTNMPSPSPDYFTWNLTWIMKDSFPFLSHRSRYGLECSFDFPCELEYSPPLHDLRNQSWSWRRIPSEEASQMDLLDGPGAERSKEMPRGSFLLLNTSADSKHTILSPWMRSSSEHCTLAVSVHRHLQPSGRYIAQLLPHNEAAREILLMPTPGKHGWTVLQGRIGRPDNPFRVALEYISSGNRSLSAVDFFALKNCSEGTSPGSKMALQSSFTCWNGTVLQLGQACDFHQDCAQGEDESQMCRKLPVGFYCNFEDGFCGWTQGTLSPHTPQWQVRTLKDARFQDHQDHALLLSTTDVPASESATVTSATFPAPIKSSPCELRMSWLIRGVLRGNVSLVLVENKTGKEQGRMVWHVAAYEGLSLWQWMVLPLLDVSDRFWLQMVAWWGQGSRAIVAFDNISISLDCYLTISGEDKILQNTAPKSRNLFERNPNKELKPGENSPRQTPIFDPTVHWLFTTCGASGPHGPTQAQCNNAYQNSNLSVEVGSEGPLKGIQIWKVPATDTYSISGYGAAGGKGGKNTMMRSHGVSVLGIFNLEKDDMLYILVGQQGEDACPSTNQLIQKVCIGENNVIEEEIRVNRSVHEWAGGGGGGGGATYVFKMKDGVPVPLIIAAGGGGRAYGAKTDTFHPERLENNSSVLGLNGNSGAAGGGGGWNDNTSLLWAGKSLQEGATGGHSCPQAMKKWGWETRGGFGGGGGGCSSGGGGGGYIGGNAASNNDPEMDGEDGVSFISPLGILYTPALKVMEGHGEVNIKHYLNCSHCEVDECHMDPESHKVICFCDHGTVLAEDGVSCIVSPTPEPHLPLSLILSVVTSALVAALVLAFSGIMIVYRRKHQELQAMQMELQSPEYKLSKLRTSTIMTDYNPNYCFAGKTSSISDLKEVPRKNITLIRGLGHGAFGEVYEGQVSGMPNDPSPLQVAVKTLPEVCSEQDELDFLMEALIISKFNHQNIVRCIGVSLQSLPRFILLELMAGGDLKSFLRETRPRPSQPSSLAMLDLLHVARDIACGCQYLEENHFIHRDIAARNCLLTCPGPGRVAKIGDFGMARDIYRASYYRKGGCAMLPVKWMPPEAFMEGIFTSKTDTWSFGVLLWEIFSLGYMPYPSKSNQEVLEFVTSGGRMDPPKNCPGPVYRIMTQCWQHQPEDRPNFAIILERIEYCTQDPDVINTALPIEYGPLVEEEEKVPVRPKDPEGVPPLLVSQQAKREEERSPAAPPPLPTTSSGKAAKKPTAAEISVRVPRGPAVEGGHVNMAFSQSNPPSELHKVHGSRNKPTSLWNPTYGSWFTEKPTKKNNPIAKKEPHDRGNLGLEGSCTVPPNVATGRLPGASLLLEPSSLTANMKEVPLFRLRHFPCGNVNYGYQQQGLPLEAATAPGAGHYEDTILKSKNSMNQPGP

Compound: CN1C(=O)CCC(C)(C)c2cc(Nc3ncc(Cl)c(N[C@@H]4CCCC[C@H]4NS(C)(=O)=O)n3)ccc21 [Example 385, N-{(1R,2R)-2-[5-Chloro-2-(1,5,5-trimethyl-2-oxo-2,3,4,5-tetrahydro-1H-benzo[b]azepin-7-ylamino)-pyrimidin-4-ylamino]-cyclohexyl}-methanesulfonamide]
- IC50 [1, 7]: < 0.1 µM
- IC50 [2, 8]: 0.1 to 1 µM

Compound: COc1c(Nc2ncc(Cl)c(N[C@@H]3CCCC[C@H]3NS(C)(=O)=O)n2)ccc2c1C1CCC(C2)N1 (stereo partly drawn) [Example 92, N-{(1R,2R)-2-[5-Chloro-2-(3-methoxy-12-aza-tricyclo[7.2.1.0*2,7*]dodeca-2(7),3,5-trien-4-ylamino)-pyrimidin-4-ylamino]-cyclohexyl}-methanesulfonamide]
- IC50 [1, 7]: 1 to 10 µM
- IC50 [2, 8]: > 10 µM

Compound: CNC(=O)CN1CCc2cc(Nc3ncc(Cl)c(Nc4ccccc4OC)n3)c(OC)cc2CC1 [Example 1135, 2-{7-[5-Chloro-4-(2-methoxy-phenylamino)-pyrimidin-2-ylamino]-8-methoxy-1,2,4,5-tetrahydro-benzo[d]azepin-3-yl}-N-methyl-acetamide]
- IC50 [1, 5]: < 0.1 µM
- IC50 [2, 6]: > 10 µM

Compound: CNC(=O)c1ccccc1Nc1nc(Nc2ccc3c(c2)N(C)CCNC3)ncc1Cl [Example 417, 2-[5-Chloro-2-(1-methyl-2,3,4,5-tetrahydro-1H-benzo[e][1,4]diazepin-8-ylamino)-pyrimidin-4-ylamino]-N-methylbenzamide]
- IC50 [1, 7]: < 0.1 µM
- IC50 [2, 8]: < 0.1 µM

Compound: COc1cc2c(cc1Nc1ncc(Cl)c(Nc3cc(C#N)ccc3OC)n1)CCN(CC(N)=O)CC2 [Example 1154, 2-{7-[5-Chloro-4-(5-cyano-2-methoxy-phenylamino)-pyrimidin-2-ylamino]-8-methoxy-1,2,4,5-tetrahydro-benzo[d]azepin-3-yl}-acetamide]
- IC50 [1, 5]: < 0.1 µM
- IC50 [2, 6]: > 10 µM

Compound: CCN1CCNCc2cc(OC)c(Nc3ncc(Cl)c(N[C@H]4[C@@H](C(N)=O)[C@@H]5C=C[C@H]4C5)n3)cc21 [Example 1460, (1S,2S,3R,4R)-3-[5-Chloro-2-(1-ethyl-7-methoxy-2,3,4,5-tetrahydro-1H-benzo[e][1,4]diazepin-8-ylamino)-pyrimidin-4-ylamino]-bicyclo[2.2.1]hept-5-ene-2-carboxylic acid amide]
- IC50 [1, 3]: < 0.1 µM
- IC50 [2, 4]: > 10 µM

Compound: CCN1C(=O)CCCc2cc(Nc3ncc(Cl)c(Nc4ccc(N(C)C)cc4OC)n3)c(OC)cc21 [Example 1340, 7-[5-Chloro-4-(4-dimethylamino-2-methoxy-phenylamino)-pyrimidin-2-ylamino]-1-ethyl-8-methoxy-1,3,4,5-tetrahydro-benzo[b]azepin-2-one]
- IC50 [1, 5]: < 0.1 µM
- IC50 [2, 6]: > 10 µM

Compound: CC1(C)CCC(=O)Nc2ccc(Nc3ncc(Cl)c(Nc4ccc5[nH]c(C(F)(F)F)nc5c4)n3)cc21 [Example 1014, 7-[5-Chloro-4-(2-trifluoromethyl-1H-benzoimidazol-5-ylamino)-pyrimidin-2-ylamino]-5,5-dimethyl-1,3,4,5-tetrahydro-benzo[b]azepin-2-one]
- IC50 [1, 5]: < 0.1 µM
- IC50 [2, 6]: > 10 µM

Compound: CC1(C)CCCOc2c(Nc3ncc(Cl)c(Nc4ccccc4C(=O)NCCC#N)n3)cccc21 [Example 877, 2-[5-Chloro-2-(5,5-dimethyl-2,3,4,5-tetrahydro-benzo[b]oxepin-9-ylamino)-pyrimidin-4-ylamino]-N-(2-cyano-ethyl)-benzamide]
- IC50 [1, 9]: 0.1 to 1 µM
- IC50 [2, 10]: > 10 µM

Compound: {2-[2-(1-Acetyl-4-oxo-1,2,3,4,5,6-hexahydro-benzo[b][1,5]diazocin-8-ylamino)-5-chloro-pyrimidin-4-ylamino]-3-methyl-phenoxy}-acetonitrile [Example 1247]
- IC50 [1, 5]: < 0.1 µM
- IC50 [2, 6]: 0.1 to 1 µM

Compound: COc1cc2c(cc1Nc1ncc(Cl)c(N[C@@H]3CCCC[C@H]3NS(C)(=O)=O)n1)CCNC(=O)C2 [Example 263, N-{(1R,2R)-2-[5-Chloro-2-(8-methoxy-2-oxo-2,3,4,5-tetrahydro-1H-benzo[d]azepin-7-ylamino)-pyrimidin-4-ylamino]-cyclohexyl}-methanesulfonamide]
- IC50 [1, 7]: < 0.1 µM
- IC50 [2, 8]: > 10 µM

Compound: CCN1CCN(C(C)=O)c2cc(Nc3ncc(Cl)c(Nc4c(F)cccc4C(=O)NC)n3)ccc2C1 [Example 1879, 2-[2-(1-Acetyl-4-ethyl-2,3,4,5-tetrahydro-1H-benzo[e][1,4]diazepin-8-ylamino)-5-chloro-pyrimidin-4-ylamino]-3-fluoro-N-methyl-benzamide]
- IC50 [1, 7]: 0.1 to 1 µM
- IC50 [2, 8]: < 0.1 µM

Continued, values first:

- IC50 [1, 3]: 0.1 to 1 µM
- IC50 [2, 4]: < 0.1 µM
Compound: C#CCNC(=O)c1sccc1Nc1nc(Nc2ccc3c(c2)CCOC(=O)N3C)ncc1Cl [Example 1760, 3-[5-Chloro-2-(5-methyl-6-oxo-5,6,8,9-tetrahydro-7-oxa-5-aza-benzocyclohepten-2-ylamino)-pyrimidin-4-ylamino]-thiophene-2-carboxylic acid prop-2-ynylamide]

- IC50 [1, 5]: < 0.1 µM
- IC50 [2, 6]: 1 to 10 µM
Compound: COCCCNC(=O)c1ccccc1Nc1nc(Nc2ccc3c(c2)CCN(CCOC)CC3)ncc1Cl [Example 1399, {5-Chloro-2-[3-(2-methoxy-ethyl)-2,3,4,5-tetrahydro-1H-benzo[d]azepin-7-ylamino]-pyrimidin-4-ylamino}-N-(3-methoxy-propyl)-benzamide]

- IC50 [1, 5]: < 0.1 µM
- IC50 [2, 6]: > 10 µM
Compound: COc1cc2c(cc1Nc1ncc(Cl)c(N[C@H]3[C@@H](C(N)=O)[C@@H]4C=C[C@H]3C4)n1)CCN(Cc1ncco1)CC2 [Example 1179, (1S,2S,3R,4R)-3-[5-Chloro-2-(8-methoxy-3-oxazol-2-ylmethyl-2,3,4,5-tetrahydro-1H-benzo[d]azepin-7-ylamino)-pyrimidin-4-ylamino]-bicyclo[2.2.1]hept-5-ene-2-carboxylic acid amide]

- IC50 [1, 5]: < 0.1 µM
- IC50 [2, 6]: 0.1 to 1 µM
Compound: CN1C(=O)CCC(C)(C)c2cc(Nc3ncc(Cl)c(Nc4ccccc4S(=O)(=O)N(C)C)n3)ccc21 [Example 1325, 2-[5-Chloro-2-(1,5,5-trimethyl-2-oxo-2,3,4,5-tetrahydro-1H-benzo[b]azepin-7-ylamino)-pyrimidin-4-ylamino]-N,N-dimethyl-benzenesulfonamide]

- IC50 [1, 5]: < 0.1 µM
- IC50 [2, 6]: > 10 µM
Compound: CCN1C(=O)C(NC(=O)C(F)(F)F)CCc2c1ccc(Nc1ncc(Cl)c(Nc3ccccc3S(=O)(=O)N(C)C)n1)c2OC (stereo not drawn) [Example 1334, N-{7-[5-Chloro-4-(2-dimethylsulfamoyl-phenylamino)-pyrimidin-2-ylamino]-1-ethyl-6-methoxy-2-oxo-2,3,4,5-tetrahydro-1H-benzo[b]azepin-3-yl}-2,2,2-trifluoro-acetamide]

- IC50 [1, 7]: < 0.1 µM
- IC50 [2, 8]: < 0.1 µM
Compound: CNS(=O)(=O)c1ccccc1Nc1nc(Nc2ccc3c(c2)CCCC(=O)N3CC(=O)N2CCN(C)CC2)ncc1Cl [Example 10, 2-(5-Chloro-2-{1-[2-(4-methyl-piperazin-1-yl)-2-oxo-ethyl]-2-oxo-2,3,4,5-tetrahydro-1H-benzo[b]azepin-7-ylamino}-pyrimidin-4-ylamino)-N-methyl-benzenesulfonamide]

- IC50 [1, 9]: 0.1 to 1 µM
- IC50 [2, 10]: > 10 µM
Compound: COc1cc2c(cc1Nc1ncc(Cl)c(Nc3ccc(N4CCOCC4)cc3OC)n1)CCN(CC(C)(F)F)CC2 [Example 780, 5-Chloro-N*2*-[3-(2,2-difluoro-propyl)-8-methoxy-2,3,4,5-tetrahydro-1H-benzo[d]azepin-7-yl]-N*4*-(2-methoxy-4-morpholin-4-yl-phenyl)-pyrimidine-2,4-diamine]

- IC50 [1, 5]: < 0.1 µM
- IC50 [2, 6]: > 10 µM
Compound: COc1cc2c(cc1Nc1ncc(Cl)c(N[C@H]3[C@@H](C(N)=O)[C@@H]4C=C[C@H]3C4)n1)C(C)(C)CCC(=O)N2C [Example 1313, (1S,2S,3R,4R)-3-[5-Chloro-2-(8-methoxy-1,5,5-trimethyl-2-oxo-2,3,4,5-tetrahydro-1H-benzo[b]azepin-7-ylamino)-pyrimidin-4-ylamino]-bicyclo[2.2.1]hept-5-ene-2-carboxylic acid amide]

- IC50 [1, 7]: < 0.1 µM
- IC50 [2, 8]: < 0.1 µM
Compound: CCN1C(=O)CCCc2ccc(Nc3ncc(Cl)c(Nc4c(F)cccc4C(=O)NC)n3)cc21 [Example 358, 2-[5-Chloro-2-(1-ethyl-2-oxo-2,3,4,5-tetrahydro-1H-benzo[b]azepin-8-ylamino)pyrimidin-4-ylamino]-3-fluoro-N-methyl-benzamide]

- IC50 [1, 9]: < 0.1 µM
- IC50 [2, 10]: > 10 µM
Compound: COCCN(C)C1CCc2ccc(Nc3ncc(Cl)c(N[C@H]4[C@@H](C(N)=O)[C@@H]5C=C[C@H]4C5)n3)c(OC)c2CC1 (single isomer, unassigned) [Example 701]

- IC50 [1, 9]: 1 to 10 µM
- IC50 [2, 10]: > 10 µM
Compound: COc1ccccc1Nc1nc(Nc2cccc3c2OCCCC3)ncc1Cl [Example 864, 5-Chloro-N*4*-(2-methoxy-phenyl)-N*2*-(2,3,4,5-tetrahydrobenzo[b]oxepin-9-yl)-pyrimidine-2,4-diamine]

- IC50 [1, 9]: 0.1 to 1 µM
- IC50 [2, 10]: 1 to 10 µM
Compound: CS(=O)(=O)N[C@@H]1CCCC[C@H]1Nc1nc(Nc2ccc3c(c2)CNCCS3(=O)=O)ncc1Cl [Example 520, N-{(1R,2R)-2-[5-Chloro-2-(5,5-dioxo-6,7,8,9-tetrahydro-5H-5lambda*6*-thia-8-aza-benzoylcyclohepten-2-ylamino)-pyrimidin-4-ylamino]-cyclohexyl}-methanesulfonamide]
